Laboratory results published in the NIST ThermoML archive (doi:10.1021/je100220c).

Test: excess molar enthalpy (molar enthalpy of mixing); xn = mol fraction of the nth substance listed
Conditions: Liquid, Flow calorimetry

CC(C)=O [acetone] + O=C=O
excess molar enthalpy [kcal/mol]
Conditions	313.15 K	323.15 K	333.15 K
9000 kPa, x2 = 0.095	-0.109	–	–
9000 kPa, x2 = 0.102	–	-0.174	-0.18
9000 kPa, x2 = 0.158	–	-0.262	–
9000 kPa, x2 = 0.18	-0.223	–	-0.313
9000 kPa, x2 = 0.246	-0.287	-0.406	-0.424
9000 kPa, x2 = 0.319	–	-0.512	–
9000 kPa, x2 = 0.337	-0.357	–	-0.571
9000 kPa, x2 = 0.424	–	-0.643	-0.702
9000 kPa, x2 = 0.432	-0.446	–	–
9000 kPa, x2 = 0.507	-0.484	-0.749	-0.8
9000 kPa, x2 = 0.586	-0.532	-0.834	–
9000 kPa, x2 = 0.625	–	–	-0.958
9000 kPa, x2 = 0.662	-0.547	–	–
9000 kPa, x2 = 0.699	–	-0.957	-1.02
9000 kPa, x2 = 0.771	-0.565	-0.998	-1.04
9000 kPa, x2 = 0.805	–	-0.998	–
9000 kPa, x2 = 0.807	–	–	-1
9000 kPa, x2 = 0.84	-0.534	-0.968	–
9000 kPa, x2 = 0.9	-0.487	–	–
9000 kPa, x2 = 0.906	–	-0.821	-0.485
9000 kPa, x2 = 0.938	-0.415	-0.624	-0.289
9000 kPa, x2 = 0.969	-0.287	-0.271	–
12000 kPa, x2 = 0.108	-0.0772	-0.0963	–
12000 kPa, x2 = 0.189	-0.137	–	–
12000 kPa, x2 = 0.209	–	-0.182	–
12000 kPa, x2 = 0.258	-0.175	–	–
12000 kPa, x2 = 0.305	–	-0.254	–
12000 kPa, x2 = 0.332	-0.22	–	–
12000 kPa, x2 = 0.351	–	-0.29	–
12000 kPa, x2 = 0.395	-0.251	–	–
12000 kPa, x2 = 0.438	–	-0.352	–
12000 kPa, x2 = 0.464	-0.279	–	–
12000 kPa, x2 = 0.562	-0.307	-0.403	–
12000 kPa, x2 = 0.646	–	-0.423	–
12000 kPa, x2 = 0.675	-0.316	–	–
12000 kPa, x2 = 0.747	–	-0.429	–
12000 kPa, x2 = 0.781	-0.287	–	–
12000 kPa, x2 = 0.801	–	-0.411	–
12000 kPa, x2 = 0.847	-0.245	–	–
12000 kPa, x2 = 0.879	–	-0.332	–
12000 kPa, x2 = 0.911	-0.176	–	–
12000 kPa, x2 = 0.941	–	-0.223	–
12000 kPa, x2 = 0.971	-0.0612	-0.132	–
15000 kPa, x2 = 0.111	-0.0662	-0.0736	-0.0887
15000 kPa, x2 = 0.194	-0.109	-0.127	–
15000 kPa, x2 = 0.215	–	–	-0.162
15000 kPa, x2 = 0.264	-0.148	-0.171	–
15000 kPa, x2 = 0.312	–	–	-0.225
15000 kPa, x2 = 0.34	-0.182	–	–
15000 kPa, x2 = 0.359	–	-0.216	–
15000 kPa, x2 = 0.404	–	–	-0.285
15000 kPa, x2 = 0.456	-0.217	–	–
15000 kPa, x2 = 0.473	–	-0.267	–
15000 kPa, x2 = 0.489	–	–	-0.326
15000 kPa, x2 = 0.53	-0.239	-0.283	–
15000 kPa, x2 = 0.586	-0.244	–	–
15000 kPa, x2 = 0.609	–	-0.297	-0.364
15000 kPa, x2 = 0.647	-0.244	–	–
15000 kPa, x2 = 0.683	–	-0.296	-0.372
15000 kPa, x2 = 0.719	-0.234	–	–
15000 kPa, x2 = 0.753	–	–	-0.36
15000 kPa, x2 = 0.787	-0.212	-0.268	–
15000 kPa, x2 = 0.82	–	–	-0.31
15000 kPa, x2 = 0.852	-0.173	-0.223	–
15000 kPa, x2 = 0.883	–	–	-0.248
15000 kPa, x2 = 0.913	-0.119	-0.156	–
15000 kPa, x2 = 0.915	–	–	-0.202
15000 kPa, x2 = 0.943	-0.087	-0.117	-0.156
15000 kPa, x2 = 0.972	-0.0457	-0.0633	-0.0817
18000 kPa, x2 = 0.114	-0.0631	-0.0648	–
18000 kPa, x2 = 0.198	-0.0997	–	–
18000 kPa, x2 = 0.219	–	-0.124	–
18000 kPa, x2 = 0.269	-0.129	–	–
18000 kPa, x2 = 0.318	–	-0.174	–
18000 kPa, x2 = 0.346	-0.161	–	–
18000 kPa, x2 = 0.41	-0.187	-0.211	–
18000 kPa, x2 = 0.479	-0.202	-0.233	–
18000 kPa, x2 = 0.577	-0.215	-0.248	–
18000 kPa, x2 = 0.652	-0.22	-0.245	–
18000 kPa, x2 = 0.724	-0.205	-0.231	–
18000 kPa, x2 = 0.791	-0.173	-0.205	–
18000 kPa, x2 = 0.855	-0.136	-0.167	–
18000 kPa, x2 = 0.915	-0.0915	-0.108	–
18000 kPa, x2 = 0.944	–	-0.0774	–
18000 kPa, x2 = 0.956	-0.0521	–	–
18000 kPa, x2 = 0.973	–	-0.0445	–
